From PubChem BioAssay AID248 (DTP/NCI, 2004)
Where “and” joins values, the source holds several entries; their conditions need not be identical. Equal values may be shown once. Inconclusive results and toxic doses are left out. No stated cut-off is given here; in the data, active means T/C of 150% or more; inactive means T/C below 125%.

Test system: L1210 leukemia ip in BDF1 mice, survival T/C
Test: NCI In Vivo Anticancer Drug Screen. Data for tumor model L1210 Leukemia (intraperitoneal) in B6D2F1 (BDF1) mice
Conditions: endpoint: mean survival time, higher = longer survival
In short: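 Value reflects the ratio of survival in compound-treated mice to survival in vehicle-treated controls, with both groups carrying the same transplanted tumor.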

[1] = dose: 100.0 mg/kg/injection, schedule: Q04DX003 (ip), vehicle: saline with Tween-80
[2] = dose: 200.0 mg/kg/injection, schedule: Q04DX003 (ip), vehicle: saline with Tween-80
[3] = dose: 400.0 mg/kg/injection, schedule: Q04DX003 (ip), vehicle: saline with Tween-80
[4] = dose: 50.0 mg/kg/injection, schedule: Q01DX009 (ip), vehicle: Klucel (hydroxypropylcellulose) (HPC)
[5] = dose: 100.0 mg/kg/injection, schedule: Q01DX009 (ip), vehicle: Klucel (hydroxypropylcellulose) (HPC)
[6] = dose: 200.0 mg/kg/injection, schedule: Q01DX009 (ip), vehicle: Klucel (hydroxypropylcellulose) (HPC)
[7] = dose: 25.0 mg/kg/injection, schedule: Q01DX009 (ip), vehicle: saline
[8] = dose: 25.0 mg/kg/injection, schedule: Q04DX003 (ip), vehicle: saline
[9] = dose: 50.0 mg/kg/injection, schedule: Q04DX003 (ip), vehicle: saline
[10] = dose: 100.0 mg/kg/injection, schedule: Q01DX001 (ip), vehicle: saline
[11] = dose: 100.0 mg/kg/injection, schedule: Q04DX003 (ip), vehicle: Klucel (hydroxypropylcellulose) (HPC)
[12] = dose: 200.0 mg/kg/injection, schedule: Q04DX003 (ip), vehicle: Klucel (hydroxypropylcellulose) (HPC)
[13] = dose: 400.0 mg/kg/injection, schedule: Q04DX003 (ip), vehicle: Klucel (hydroxypropylcellulose) (HPC)
[14] = dose: 100.0 mg/kg/injection, schedule: Q04DX002 (ip), vehicle: saline
[15] = dose: 400.0 mg/kg/injection, schedule: Q01DX009 (ip), vehicle: Klucel (hydroxypropylcellulose) (HPC)

Measured: T/C

C1=CC2C3C=CC(CC3)C2CC1 (stereo not drawn)
inactive: [1] 106 % of control | [2] 97 % of control | [3] 87 % of control

Cn1c(O)c(N=NC(N)=S)c2ccccc21
inactive: dose: 3.0 mg/kg/injection, schedule: Q01DX015 (ip), vehicle: carboxymethylcellulose (CMC) 96 % of control | dose: 6.0 mg/kg/injection, schedule: Q01DX015 (ip), vehicle: carboxymethylcellulose (CMC) 103 % of control | dose: 12.0 mg/kg/injection, schedule: Q01DX015 (ip), vehicle: carboxymethylcellulose (CMC) 97 % of control | dose: 25.0 mg/kg/injection, schedule: Q01DX015 (ip), vehicle: carboxymethylcellulose (CMC) 106 % of control | dose: 50.0 mg/kg/injection, schedule: Q01DX015 (ip), vehicle: carboxymethylcellulose (CMC) 103 % of control | dose: 62.5 mg/kg/injection, schedule: Q01DX015 (ip), vehicle: carboxymethylcellulose (CMC) 107 % of control

CC1=CC2c3c([nH]c(=S)[nH]c3=O)OC(C)(C)C2CC1 (stereo not drawn)
inactive: [4] 99 % of control | [5] 96 % of control | [6] 96 % of control

CCOCN(C)C
inactive: dose: 25.0 mg/kg/injection, schedule: Q01DX001 (ip), vehicle: saline 103 % of control | [7] 103 % of control | [8] 100 % of control | dose: 44.0 mg/kg/injection, schedule: Q01DX009 (ip), vehicle: saline 110 % of control | dose: 50.0 mg/kg/injection, schedule: Q01DX001 (ip), vehicle: saline 94 % of control | dose: 50.0 mg/kg/injection, schedule: Q01DX009 (ip), vehicle: saline 105 % of control | [9] 100 % of control | dose: 66.0 mg/kg/injection, schedule: Q01DX009 (ip), vehicle: saline 103 % of control | [10] 97 % of control and 107 % of control | dose: 100.0 mg/kg/injection, schedule: Q01DX009 (ip), vehicle: saline 97 % of control | dose: 100.0 mg/kg/injection, schedule: Q04DX003 (ip), vehicle: saline 105 % of control

CCCCNC(C)(C)C(SS)c1ccc(C(F)(F)F)cc1 (stereo not drawn)
inactive: dose: 25.0 mg/kg/injection, schedule: Q01DX009 (ip), vehicle: other 96 % of control | dose: 25.0 mg/kg/injection, schedule: Q04DX003 (ip), vehicle: other 98 % of control | dose: 50.0 mg/kg/injection, schedule: Q01DX009 (ip), vehicle: other 94 % of control | dose: 50.0 mg/kg/injection, schedule: Q04DX003 (ip), vehicle: other 93 % of control | dose: 100.0 mg/kg/injection, schedule: Q01DX009 (ip), vehicle: other 98 % of control | dose: 100.0 mg/kg/injection, schedule: Q04DX003 (ip), vehicle: other 86 % of control

CCOC(=O)c1ncn(-c2ccccc2)c1C(=O)OCC
inactive: dose: 100.0 mg/kg/injection, schedule: Q04DX002 (ip), vehicle: carboxymethylcellulose (CMC) 100 % of control | dose: 100.0 mg/kg/injection, schedule: Q04DX003 (ip), vehicle: carboxymethylcellulose (CMC) 96 % of control and 100 % of control | dose: 200.0 mg/kg/injection, schedule: Q04DX002 (ip), vehicle: carboxymethylcellulose (CMC) 97 % of control and 104 % of control | dose: 200.0 mg/kg/injection, schedule: Q04DX003 (ip), vehicle: carboxymethylcellulose (CMC) 96 % of control and 101 % of control | dose: 400.0 mg/kg/injection, schedule: Q04DX002 (ip), vehicle: carboxymethylcellulose (CMC) 94 % of control and 86 % of control | dose: 400.0 mg/kg/injection, schedule: Q04DX003 (ip), vehicle: carboxymethylcellulose (CMC) 94 % of control and 92 % of control

O=C(O)c1ccccc1C(=O)OC1CC2C=CC1C21CC1 (stereo not drawn)
inactive: [4] 98 % of control | [5] 96 % of control and 95 % of control | [11] 95 % of control | [6] 100 % of control and 113 % of control | [12] 104 % of control and 106 % of control | [13] 101 % of control

CC1CNC(=O)C(=O)N1 (stereo not drawn)
inactive: [14] 98 % of control | dose: 200.0 mg/kg/injection, schedule: Q04DX002 (ip), vehicle: saline 102 % of control | dose: 400.0 mg/kg/injection, schedule: Q04DX002 (ip), vehicle: saline 94 % of control

O=C(CCl)NP(=O)(O)O
inactive: dose: 25.0 mg/kg/injection, schedule: Q04DX002 (ip), vehicle: saline 97 % of control | dose: 50.0 mg/kg/injection, schedule: Q04DX002 (ip), vehicle: saline 102 % of control | [14] 102 % of control

COc1cc(C)c(O)c(C)c1C
inactive: [1] 95 % of control | [2] 95 % of control | [3] 95 % of control

COc1ccc(C)cc1NC(=O)c1ccc(F)cc1
inactive: [5] 94 % of control | [6] 97 % of control | [15] 100 % of control

O=C(/C(=N/O)c1ccc(Cl)cc1)c1ccccc1
inactive: [4] 89 % of control | dose: 75.0 mg/kg/injection, schedule: Q01DX001 (ip), vehicle: Klucel (hydroxypropylcellulose) (HPC) 89 % of control | [5] 96 % of control | dose: 150.0 mg/kg/injection, schedule: Q01DX001 (ip), vehicle: Klucel (hydroxypropylcellulose) (HPC) 100 % of control | [6] 107 % of control | dose: 300.0 mg/kg/injection, schedule: Q01DX001 (ip), vehicle: Klucel (hydroxypropylcellulose) (HPC) 98 % of control

c1ccc2c(C3CCCCN3)c[nH]c2c1 (stereo not drawn)
inactive: dose: 12.5 mg/kg/injection, schedule: Q01DX009 (ip), vehicle: saline 88 % of control | [7] 90 % of control | [8] 103 % of control | [9] 92 % of control | [10] 97 % of control

S=c1cc[nH]c2[nH]ncc12
inactive: dose: 100.0 mg/kg/injection, schedule: Q04DX002 (ip), vehicle: DMSO 94 % of control | dose: 200.0 mg/kg/injection, schedule: Q04DX002 (ip), vehicle: DMSO 97 % of control

COC(=O)CC1(O)C=CC(=O)C=C1
inactive: dose: 6.25 mg/kg/injection, schedule: Q01DX009 (ip), vehicle: Klucel (hydroxypropylcellulose) (HPC) 95 % of control | dose: 12.5 mg/kg/injection, schedule: Q01DX009 (ip), vehicle: Klucel (hydroxypropylcellulose) (HPC) 92 % of control | dose: 25.0 mg/kg/injection, schedule: Q01DX009 (ip), vehicle: Klucel (hydroxypropylcellulose) (HPC) 108 % of control | [7] 100 % of control

CCOc1ccc(NC(=O)C=O)cc1
inactive: [5] 92 % of control | [11] 94 % of control | [6] 103 % of control | [12] 94 % of control | [15] 105 % of control | [13] 97 % of control

C=CSc1ccccc1
inactive: dose: 100.0 mg/kg/injection, schedule: Q01DX009 (ip), vehicle: saline with Tween-80 105 % of control | dose: 200.0 mg/kg/injection, schedule: Q01DX009 (ip), vehicle: saline with Tween-80 93 % of control

CCCCCCCCCCCCCCCCCC1=Nc2ccccc2NC(=O)C1
inactive: dose: 100.0 mg/kg/injection, schedule: Q01DX001 (ip), vehicle: carboxymethylcellulose (CMC) 98 % of control | dose: 200.0 mg/kg/injection, schedule: Q01DX001 (ip), vehicle: carboxymethylcellulose (CMC) 98 % of control | dose: 400.0 mg/kg/injection, schedule: Q01DX001 (ip), vehicle: carboxymethylcellulose (CMC) 93 % of control

CN(N=O)C(=O)NC1CC2CCC1C2 (stereo not drawn)
inactive: dose: 4.0 mg/kg/injection, schedule: Q01DX001 (ip), vehicle: other 104 % of control | dose: 8.0 mg/kg/injection, schedule: Q01DX001 (ip), vehicle: other 104 % of control | dose: 16.0 mg/kg/injection, schedule: Q01DX001 (ip), vehicle: other 108 % of control | dose: 31.0 mg/kg/injection, schedule: Q01DX001 (ip), vehicle: other 104 % of control | dose: 62.0 mg/kg/injection, schedule: Q01DX001 (ip), vehicle: other 100 % of control | dose: 125.0 mg/kg/injection, schedule: Q01DX001 (ip), vehicle: other 104 % of control | dose: 250.0 mg/kg/injection, schedule: Q01DX001 (ip), vehicle: other 112 % of control | dose: 375.0 mg/kg/injection, schedule: Q01DX001 (ip), vehicle: other 112 % of control | dose: 500.0 mg/kg/injection, schedule: Q01DX001 (ip), vehicle: other 118 % of control

Cc1ccc(C(=O)/C=C\c2ccc(Cl)cc2Cl)cc1
inactive: [11] 92 % of control | [12] 100 % of control | [13] 92 % of control
